Experimental findings from patent US20240423971A1, “APPLICATION OF RIP2 INHIBITOR COMBINED WITH CHEMOTHERAPY DRUG” (NINGBO COMBIREG PHARMACEUTICAL TECHNOLOGY CO., LTD., priority 2021, published 2024) are described below.

Molecules are shown by their SMILES.

The test system of assay [1] is immune cells in tumor tissues of melanoma (B16F10) tumor-bearing model. Briefly: Flow cytometry detection of proportion of immune cells in tumor microenvironment of melanoma tumor-bearing mice. The format is in vivo, C57BL/6 mice. The conditions noted are these: GSK583 1 mg/kg, PTX 10 mg/kg, combination vs vehicle, GSK583-alone. The protocol: Preparation of enzyme lysis buffer: 1 g of collagenase type IV (Sigma C5138), 100 mg of hyaluronidase (Sigma H6254), and 20,000 units of DNase type IV (Sigma D5025) were added to 80 mL of HBSS and mixed well. The mixture was then added with HBSS to make up a volume of 100 mL to obtain a 100×enzyme lysis buffer, which was filtered through a 0.22 μm filter membrane and stored at −20° C., and diluted with HBSS to 1× concentration before use.
Dissociation of tumor tissues: Tumor tissues were removed and weighed (0.04 to 1 g), then cut into small pieces of 2×2 mm with a scalpel, added with 2.5 mL of enzyme lysis mixture, and transferred to a gentleMACS C Tube (Miltenyi Biotec 130-096-334). The C Tube was inverted on a gentleMACS Dissociator (Miltenyi Biotec 130-093-235), and the program “gentleMACS Program m_impTumor_02” was run. The C Tube was removed from the gentleMACS Dissociator and incubated at 37° C. for 40 minutes. The C Tube was inverted on the gentleMACS Dissociator again, and the program “gentleMACS Program m_impTumor_03” was run. […]
Flow cytometry detection: After counting the dissociated tumor tissues, the cell concentration was adjusted, and 200 μL/well of cells (5 to 10×10^5 cells/well) were added to a 96 U-bottom plate. […] The cells were resuspended in 100 μL/well of cell staining buffer, and then detected by flow cytometry.

The next assay concerns melanoma (B16F10). Briefly: Melanoma (B16F10) tumor-bearing model, GSK583 combined with PTX. The format is in vivo, C57BL/6 mice. To be noted: GSK583 1 mg/kg. As for the experimental part:
Both of the test substances PTX (Sigma) and GSK583 (MCE) were prepared as a 20× DMSO stock solution, which was diluted with normal saline containing 5% (v/v) polyoxyethylene castor oil (Cremophor EL) to the administration concentration before use. Experimental animals and tumor strains: SPF grade male wild-type C57BL/6 mice, 6 to 8 weeks old, purchased from Beijing Vital River Laboratory Animal Technology Co., Ltd. Cells used in the experiment: murine melanoma cell line (B16-F10), purchased from ATCC. Mice were randomly divided into 4 groups with 8 mice in each group based on body weight according to the method shown in (A of FIG. 1 and B of FIG. 1), namely: (i) vehicle control group; (ii) GSK583 (1 mg/kg) group; (iii) PTX (10 mg/kg) group; (iv) GSK583 (1 mg/kg)+PTX (10 mg/kg) group. PTX, GSK583, and vehicle were administered intravenously once every 4 days for a total of 4 doses. The mice were subcutaneously inoculated with B16-F10 cells with a concentration of 2× 10^6 cells/mL and 0.1 mL/mouse, and the day of inoculation was recorded as DAY 0. The administration was started on DAY 1. During the administration, the animals were weighed every 2 days. The long diameter and short diameter of the tumor were measured with a vernier caliper. The tumor size was calculated by the formula: (½)×long diameter×(short diameter) 2. The experiment was terminated on DAY 15. After the mice were euthanized and dissected, the tumor was weighed and the tumor inhibition rate was calculated.

`CC(=O)O[C@H]1C(=O)[C@@]2(C)[C@H]([C@H](OC(=O)c3ccccc3)[C@]3(O)C[C@H](OC(=O)[C@H](O)[C@@H](NC(=O)c4ccccc4)c4ccccc4)C(C)=C1C3(C)C)[C@]1(OC(C)=O)CO[C@@H]1C[C@@H]2O` [PTX, Paclitaxel]: the “proportion of neutrophils in tumor tissues” value in assay [1] is reported as “significant decrease”. Also, the “tumor weight at the end of the administration” value in the assay on melanoma (B16F10) (B16-F10 in C57BL/6 mice, PTX 10 mg/kg i.v. every 4 days x4, DAY 15, vs control group) was “significantly and statistically lower than that of the control group”. The “growth rate of tumor volume” value in the assay on melanoma (B16F10) (B16-F10 in C57BL/6 mice, PTX 10 mg/kg i.v. every 4 days x4, vs control group) is “slower than that of the control group”. Also, the “tumor growth compared to the vehicle control group” value in the assay with melanoma (B16F10) (B16-F10 s.c. in C57BL/6 mice, PTX 10 mg/kg i.v. once every 4 days, 4 doses, to DAY 15) is listed as “significantly inhibited tumor growth”.
